Measurements reported in article doi:10.1101/2020.08.17.255026v1 (biorxiv, 2020).

Assays:
PxRDL2 [1] = biological target: T1, PxRDL2 (Plutella xylostella, UniProt C0L7I7); test: two-electrode voltage clamp, Xenopus oocytes; assay type: cell-based
T1 sequence (C0L7I7 30-520): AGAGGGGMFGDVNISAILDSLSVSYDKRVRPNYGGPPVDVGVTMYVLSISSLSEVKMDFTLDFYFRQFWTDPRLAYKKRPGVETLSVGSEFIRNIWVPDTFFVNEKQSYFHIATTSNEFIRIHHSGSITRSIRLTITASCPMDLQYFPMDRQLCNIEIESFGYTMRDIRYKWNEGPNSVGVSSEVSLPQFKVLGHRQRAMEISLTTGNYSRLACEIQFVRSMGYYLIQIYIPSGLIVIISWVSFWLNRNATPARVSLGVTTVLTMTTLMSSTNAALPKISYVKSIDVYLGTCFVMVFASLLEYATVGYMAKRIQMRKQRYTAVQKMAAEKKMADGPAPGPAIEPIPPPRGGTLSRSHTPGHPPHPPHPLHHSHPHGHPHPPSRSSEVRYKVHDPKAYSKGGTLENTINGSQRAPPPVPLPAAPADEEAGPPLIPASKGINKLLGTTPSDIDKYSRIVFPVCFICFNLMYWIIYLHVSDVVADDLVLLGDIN

PxRDL1 [2] = biological target: T2, PxRDL1 (Plutella xylostella, UniProt C0L7I5); test: cell-based; set-up: species or system Xenopus laevis oocytes
T2 sequence (C0L7I5 26-485): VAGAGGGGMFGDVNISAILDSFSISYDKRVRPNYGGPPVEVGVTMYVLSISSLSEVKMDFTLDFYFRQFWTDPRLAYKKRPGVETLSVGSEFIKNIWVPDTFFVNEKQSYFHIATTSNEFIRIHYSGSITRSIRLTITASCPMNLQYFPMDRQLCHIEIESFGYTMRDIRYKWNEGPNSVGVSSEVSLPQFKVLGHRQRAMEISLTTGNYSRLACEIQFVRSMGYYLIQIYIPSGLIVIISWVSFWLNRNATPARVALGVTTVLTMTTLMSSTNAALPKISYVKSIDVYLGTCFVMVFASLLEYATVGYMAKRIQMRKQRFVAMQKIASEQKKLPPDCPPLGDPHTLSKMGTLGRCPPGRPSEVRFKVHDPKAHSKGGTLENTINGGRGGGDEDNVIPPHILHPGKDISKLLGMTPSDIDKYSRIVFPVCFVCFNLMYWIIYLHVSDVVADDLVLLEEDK

PxRDL2 [3] = biological target: T1, PxRDL2; test: two-electrode voltage clamp, Xenopus oocytes; assay type: cell-based; remark: listed apart in the source
PxRDL1 [4] = biological target: T2, PxRDL1; test: cell-based; set-up: species or system Xenopus laevis oocytes; remark: listed apart in the source

Row | SMILES | EC50 (PxRDL2 [1]) [µM] | EC50 (PxRDL1 [2]) [µM] | IC50 (PxRDL2 [3]) [µM] | IC50 (PxRDL1 [4]) [µM]
1 | NCCCC(=O)O [GABA] | 153 | 20.8 ± 5.99 | – | –
2 | N#Cc1nn(-c2c(Cl)cc(C(F)(F)F)cc2Cl)c(N)c1[S+]([O-])C(F)(F)F (stereo not shown) [fipronil] | – | – | 5.23 | 0.13 ± 0.01
